Values quoted from earlier work in patent US20240310266A1, “BIOMARKERS FOR CANCER AND METHODS OF USE THEREOF” (Novartis AG, priority 2021, published 2024).

Details: rats

**Q.** Which proliferative skin lesions does the source give for `CC(C)(C)c1nc(-c2cccc(NS(=O)(=O)c3c(F)cccc3F)c2F)c(-c2ccnc(N)n2)s1` [dabrafenib, N-{3-[5-(2-aminopyrimidin-4-yl)-2-tert-butyl-1,3-thiazol-4-yl]-2-fluorophenyl}-2,6-difluorobenzenesulfonamide] here?
**A.** proliferative skin lesions observed
